From PMC4267740, “Unprecedented Therapeutic Potential with a Combination of A2A/NR2B Receptor Antagonists as Observed in the 6-OHDA Lesioned Rat Model of Parkinson's Disease” (PLoS ONE, 2014)
pIC50, pKi: −log10 of the molar value.

Tests used:
[1] = test system: NR2B; details: In vitro Binding; cited from earlier work
[2] = test system: NR2A; parameters: method as in PMID 19594762; details: In vitro Binding; cited from earlier work
[3] = test system: unilateral 6-OHDA-lesioned rats; assay: L-Dopa-induced contralateral rotations in rotometers, add-on therapy; format: in vivo, rat; details: add-on to L-Dopa 25 mg/kg ip; for Contralateral rotations, drugs alone vs vehicle, time for which significant: 10-min intervals, 120 min recording; for Time for which the drug given separately was active in increasing or prolonging the L-Dopa effect on contralateral rotations: each given separately
Protocol: To protect norepinephrinergic neurons, animals were administered imipramine HCl (Sigma) 15 minutes before surgery. They were subsequently anesthetized with ketamine (Ceva, 75 mg/kg) and xylazine (Bayer, 10 mg/kg) and placed in stereotaxic frame (David Kopf Instrument). 6-OHDA was injected into the right ascending medial forebrain bundle at the following coordinates (in mm) relative to bregma and surface of the dura, AP = −3.5, ML = −1.5, DV = −8.7. Each rat received one injection of 6-OHDA (4 µg/µl) over a period of 5 minutes (0.5 µl/min) for a total of 10 µg per rat. Animals were monitored for 3 weeks to ensure full recovery and habituation to the environment and experimenters.
On day 21 post surgery, all rats were challenged with a small dose of subcutaneously administered apomorphine (Sigma, 0.05 mg/kg). Rats showing more than 90 contralateral rotations (360°) over a 45-minute recording period were included in the study. […] For each experiment, rats were allocated to the different experimental groups in order to get the same mean level of basal activity measured at the apomorphine challenge amongst the different experimental groups.
The rats tested one week earlier for general activity (actometers) were once again placed in clear acrylic individual chambers (50×45 cm) with the same treatment (drug and dose) than that previously received plus L-Dopa. Eight chambers were placed on a level, clear glass bottom, held by a robust frame, and were subdivided into four individual test cages of 25×22 cm. A removable acrylic plate served as a lid.
Rotational behaviour was recorded using a home-made computerized system. Rats were fixed in a harness and linked to mechanical sensors connected directly to a computer. Each 360° clock-wise or counter clock-wise turn was automatically recorded for up to 120 minutes at the maximum. Throughout the experiments, rats were allocated to individual test cages.
Four different combinations were administered as add-on treatment to a low active dose of L-Dopa (25 mg/kg, ip) without any dopa decarboxylase inhibitor to avoid any additional pharmacokinetic interaction. The doses of the compounds were selected on the basis of preliminary dose-response curves performed separately for each drug. To avoid ceiling effect with L-Dopa, only submaximal doses of each drug were selected for testing (as it was done previously for monotherapy). Eight L-Dopa naïve animals were tested for each of the four pharmacological condition: vehicle and L-Dopa (25 mg/kg); A2A antagonist followed by vehicle and L-Dopa; vehicle followed by NR2B antagonist and L-Dopa; A2A antagonist followed by NR2B and L-Dopa. Due to the dominance of the L-Dopa-effect on the lesioned striatum, the unilateral 6-OHDA-lesioned rats rotated after the drugs administration and behavioral activity was recorded in rotometers (i.e. level of contralateral rotations).
All drugs were administered i.p. 25 minutes before behavioural recording, except for the Tozadenant and Radiprodil combination which was administered orally 60 minutes before behavioural recording. As Radiprodil was administered orally, L-Dopa was given 45 minutes after the Radiprodil injection whereas for the other combinations L-Dopa was given 15 minutes after the NR2B drug. The drugs, the doses and the combinations given in co-administration to L-Dopa are described in Table 4 .
The impact of treatment with A2A or NR2B receptor antagonists, given alone or in combination, on the effect of L-Dopa on contralateral rotations was also analysed with a three-way mixed ANOVA. The ANOVA included the A2A and the NR2B receptor antagonists (both, 2 levels, vehicle and the drug) as between-group factors combined with time (12 levels) as within-subjects factor. […] The ability of the combination to increase and prolong the activity of L-Dopa was also explored. Consequently, drug effects were analyzed for every 10-min time interval. […]

[4] = target: A2A; parameters: method as in PMID 21810444, PMID 9933143, PMID 17236762; details: in vitro binding; rat or human; cited from earlier work
[5] = target: A1; parameters: method as in PMID 21810444, PMID 9933143, PMID 17236762; details: in vitro binding; rat or human; cited from earlier work
[6] = Preladenant 0.03 mg/kg ip, Radiprodil 0.3 mg/kg ip
[7] = Tozadenant 30 mg/kg po, Radiprodil 3 mg/kg po
[8] = Sch-58261 0.3 mg/kg ip, Co-101244 1 mg/kg ip

| Structure (SMILES) | pIC50 [1] | pIC50 [2] | Contralateral rotations, drugs alone vs vehicle, p (planned contrasts on each 10-min interval) [3, 6] | Contralateral rotations, drugs main effect, p (three-way mixed ANOVA) [3, 6] | Contralateral rotations, drugs × time effect, p (three-way mixed ANOVA) [3, 6] | Contralateral rotations, drugs alone vs vehicle, p (planned contrasts on each 10-min interval) [3, 7] | Contralateral rotations, drugs main effect, p (three-way mixed ANOVA) [3, 7] | Contralateral rotations, drugs × time effect, p (three-way mixed ANOVA) [3, 7] | Contralateral rotations, drugs alone vs vehicle, time for which significant [3, 7] | Time for which the drug given separately was active in increasing or prolonging the L-Dopa effect on contralateral rotations [3, 7] [min] | Contralateral rotations, drugs main effect, p (three-way mixed ANOVA) [3, 8] | Contralateral rotations, drugs × time effect, p (three-way mixed ANOVA) [3, 8] | pKi [4] | pKi [5] |
| --- | --- | --- | --- | --- | --- | --- | --- | --- | --- | --- | --- | --- | --- | --- |
| O=C(Nc1ccc2[nH]c(=O)oc2c1)C(=O)N1CCC(Cc2ccc(F)cc2)CC1 [Radiprodil] | 8.00 to 8.52 | < 5.00 | Not significant | Not significant | p<0.01 | < 0.05 | p<0.01 | p<0.001 | 20 ′ | 20 | – | – | – | – |
| Nc1nc2c(cnn2CCc2ccccc2)c2nc(-c3ccco3)nn12 [Sch-58261] | – | – | – | – | – | – | – | – | – | – | p<0.05 | p<0.001 | – | – |
| COc1ccc(N2CCOCC2)c2sc(NC(=O)N3CCC(C)(O)CC3)nc12 [Tozadenant] | – | – | – | – | – | < 0.05 | p<0.001 | p<0.001 | 80 ′ | 80 | – | – | 8.31 | 5.88 |
